Among the data in patent US8088806B2 (Achillion Pharmaceuticals, Inc., priority 2005, dated 2012) are EC50 values, retold here.

The experiment has as its system HCV replicon. As to the kind of experiment: Replicon based assay of HCV replication inhibition (NPT ELISA). To be noted: Hepatitis C virus, replicon based assay of HCV replication inhibition; Table IV; read-out: Activity. The format is cell-based, Hepatitis C virus. Summed up:
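NPT (neomycin phosphotransferase) content, proportional to replicon replication, quantified by capture ELISA on day four. Before that, replicon-bearing Huh-7 cells in G418-free screening medium were exposed three days at 37° C to compound, typically six doses from 10 to 0.03 micromolar, with equal DMSO across wells.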
For the molecule `FC(F)(F)c1cc(Nc2nc(-c3cccnc3)cs2)ccc1OCCCc1cccnc1` [compound 800, N-(4-(3-(pyridin-3-yl)propoxy)-3-(trifluoromethyl)phenyl)-4-(pyridin-3-yl)thiazol-2-amine], the EC50 was less than 1000 nM.

Regarding `CCCCCCCCOc1ccc(Nc2nc(C3=CSC4=NC(=O)CN34)cs2)cc1C(F)(F)F` [compound 801, 3-(2-(3-(trifluoromethyl)-4-(octyloxy)phenylamino)thiazol-4-yl)imidazo[2,1-b]thiazol-6(SH)-one], the EC50 was less than 1000 nM.

As to `CN(CCOc1ccc(Nc2nc(-c3cccnc3)cs2)cc1C(F)(F)F)c1ccccc1` [compound 802], the EC50 is less than 1000 nM.

Consider `COc1ncc(-c2csc(Nc3ccc(OCCCC4CCCC4)c(C(F)(F)F)c3)n2)cn1` [compound 803, N-(4-(3-cyclopentylpropoxy)-3-(trifluoromethyl)phenyl)-4-(2-methoxypyrimidin-5-yl)thiazol-2-amine], for which the EC50 is less than 1000 nM. The result for `FC(F)(F)c1cc(Nc2nc(-c3cccnc3)cs2)ccc1OCCCCc1ccccc1` [compound 804, N-(4-(4-phenylbutoxy)-3-(trifluoromethyl)phenyl)-4-(pyridin-3-yl)thiazol-2-amine] reads less than 1000 nM. To `Cc1ccc(CCCCOc2ccc(Nc3nc(-c4cccnc4)cs3)cc2C(F)(F)F)cc1` [compound 805, N-(4-(4-p-tolylbutoxy)-3-(trifluoromethyl)phenyl)-4-(pyridin-3-yl)thiazol-2-amine] belongs 1000 to 10000 nM; to `Fc1ccc(-c2csc(Nc3ccc(OCCCc4cccnc4)c(C(F)(F)F)c3)n2)cc1` [compound 806, N-(4-(3-(pyridin-3-yl)propoxy)-3-(trifluoromethyl)phenyl)-4-(4-fluorophenyl)thiazol-2-amine], 1000 to 10000 nM; to `CCCCCCCCOc1ccc(Nc2nc(-c3csc4nccn34)cs2)cc1C(F)(F)F` [compound 807, N-(3-(trifluoromethyl)-4-(octyloxy)phenyl)-4-(imidazo[2,1-b]thiazol-3-yl)thiazol-2-amine], less than 1000 nM.

Turning to `CCCCCCCCOc1ccc(Nc2nc(C(=O)CSC3=NC(=O)CC(=O)N3)cs2)cc1C(F)(F)F` [compound 808, 2-(2-(2-(3-(trifluoromethyl)-4-(octyloxy)phenylamino)thiazol-4-yl)-2-oxoethylthio)pyrimidine-4,6(1H,5H)-dione], the EC50 was less than 1000 nM. The result for `CCCCCCCCOc1ccc(Nc2nc(-c3c[nH]nc3C#N)cs2)cc1C(F)(F)F` [compound 809, 4-(2-(3-(trifluoromethyl)-4-(octyloxy)phenylamino)thiazol-4-yl)-1H-pyrazole-3-carbonitrile] reads less than 1000 nM; that for `CCCCCCCCOc1ccc(Nc2nc(-c3cnc(N)nc3)cs2)cc1C(F)(F)F` [compound 810, 5-(2-(3-(trifluoromethyl)-4-(octyloxy)phenylamino)thiazol-4-yl)pyrimidin-2-amine], less than 1000 nM; that for `CCCCCCCCOc1ccc(Nc2nc(-c3cnc[nH]3)cs2)cc1C(F)(F)F` [compound 811, N-(3-(trifluoromethyl)-4-(octyloxy)phenyl)-4-(1H-imidazol-5-yl)thiazol-2-amine], less than 1000 nM. To `CCCCCCCCOc1ccc(Nc2nc(-c3ccsc3Cl)cs2)cc1C(F)(F)F` [compound 812, 4-(2-chlorothiophen-3-yl)-N-(3-(trifluoromethyl)-4-(octyloxy)phenyl)thiazol-2-amine] belongs less than 1000 nM; to `CCCCCCCCOc1ccc(Nc2nc(-c3cccnc3C#N)cs2)cc1C(F)(F)F` [compound 813, 3-(2-(3-(trifluoromethyl)-4-(octyloxy)phenylamino)thiazol-4-yl)pyridine-2-carbonitrile], less than 1000 nM. To `CCCCCCCCOc1ccc(Nc2nc(-c3cccnc3C(N)=O)cs2)cc1C(F)(F)F` [compound 814, 3-(2-(3-(trifluoromethyl)-4-(octyloxy)phenylamino)thiazol-4-yl)pyridine-2-carboxamide] belongs 1000 to 10000 nM. As to `c1cncc(-c2csc(Nc3nc(-c4ccc5ccccc5c4)cs3)n2)c1` [compound 815, 4-(naphthalen-2-yl)-N-(4-(pyridin-3-yl)thiazol-2-yl)thiazol-2-amine], the EC50 fell in the range of 1000 to 10000 nM.

Regarding `COc1ccc(Nc2nc(-c3cccnc3)cs2)cc1S(=O)(=O)Nc1ccc(Cl)cc1` [compound 818], the EC50 was greater than 10000 nM. Take `CCN(CC)S(=O)(=O)c1cc(Nc2nc(-c3cccnc3)cs2)ccc1Cl` [compound 819]: the EC50 was greater than 10000 nM. Turning to `CCN(CC)C(=O)c1ccc(Nc2nc(-c3cccnc3)cs2)cc1` [compound 820, 4-(4-(pyridin-3-yl)thiazol-2-ylamino)-N,N-diethylbenzamide], the EC50 was greater than 10000 nM.

On to `CN(C)C(=O)c1ccc(Nc2nc(-c3cccnc3)cs2)cc1` [compound 821, 4-(4-(pyridin-3-yl)thiazol-2-ylamino)-N,N-dimethylbenzamide], for which the EC50 is greater than 10000 nM. The result for `CCCCCCC=Cc1ccc(Nc2nc(-c3cccnc3)cs2)cc1C(F)(F)F` [compound 822, N-(3-(trifluoromethyl)-4-(oct-1-enyl)phenyl)-4-(pyridin-3-yl)thiazol-2-amine] reads less than 1000 nM; that for `CCCCCCCOc1ccc(Nc2nc(-c3cccnc3)cs2)cc1C(F)(F)F` [compound 823, N-(3-(trifluoromethyl)-4-(heptyloxy)phenyl)-4-(pyridin-3-yl)thiazol-2-amine], less than 1000 nM. In the case of `CC(C)CCCOc1ccc(Nc2nc(-c3cccnc3)cs2)cc1C(F)(F)F` [compound 824, N-(4-(4-methylpentyloxy)-3-(trifluoromethyl)phenyl)-4-(pyridin-3-yl)thiazol-2-amine], the EC50 was less than 1000 nM.

On to `CCCCCCCCc1ccc(Nc2nc(-c3cccnc3)cs2)cc1C(F)(F)F` [compound 825, N-(3-(trifluoromethyl)-4-octylphenyl)-4-(pyridin-3-yl)thiazol-2-amine], for which the EC50 is less than 1000 nM. The result for `CCCCCCCCc1ccc(Nc2nc(-c3cnc(OC)nc3)cs2)cc1C(F)(F)F` [compound 826, N-(3-(trifluoromethyl)-4-octylphenyl)-4-(2-methoxypyrimidin-5-yl)thiazol-2-amine] reads less than 1000 nM; that for `CC(C)=CCC/C(C)=C/COc1ccc(Nc2nc(-c3ccc(F)cc3)cs2)cc1C(F)(F)F` [compound 827, N-(4-((E)-3,7-dimethylocta-2,6-dienyloxy)-3-(trifluoromethyl)phenyl)-4-(4-fluorophenyl)thiazol-2-amine], greater than 10000 nM; that for `COc1ncc(-c2csc(Nc3ccc(OCCCCc4ccccc4)c(C(F)(F)F)c3)n2)cn1` [compound 828, N-(4-(4-phenylbutoxy)-3-(trifluoromethyl)phenyl)-4-(2-methoxypyrimidin-5-yl)thiazol-2-amine], less than 1000 nM.

For `COc1ncc(-c2csc(Nc3ccc(OCCCCc4ccc(C)cc4)c(C(F)(F)F)c3)n2)cn1` [compound 829, N-(4-(4-p-tolylbutoxy)-3-(trifluoromethyl)phenyl)-4-(2-methoxypyrimidin-5-yl)thiazol-2-amine], the EC50 was less than 1000 nM. In the case of `COc1ncc(-c2csc(Nc3ccc(OCCCc4cccnc4)c(C(F)(F)F)c3)n2)cn1` [compound 830, N-(4-(3-(pyridin-3-yl)propoxy)-3-(trifluoromethyl)phenyl)-4-(2-methoxypyrimidin-5-yl)thiazol-2-amine], the EC50 was in the range of 1000 to 10000 nM. The result for `COc1ncc(-c2csc(Nc3ccc(OCCCc4ccccc4)c(C(F)(F)F)c3)n2)cn1` [compound 831, N-(4-(3-phenylpropoxy)-3-(trifluoromethyl)phenyl)-4-(2-methoxypyrimidin-5-yl)thiazol-2-amine] reads less than 1000 nM. With `CCCCCOc1ccc2nc(NC(=O)c3cccnc3)sc2c1` [compound 832, N-(6-(pentyloxy)benzo[d]thiazol-2-yl)nicotinamide], the EC50 is greater than 10000 nM. The result for `CCCCCCCN(C)Cc1ccc(Nc2nc(-c3cccnc3)cs2)cc1C(F)(F)F` [compound 833, N-(4-((heptyl(methyl)amino)methyl)-3-(trifluoromethyl)phenyl)-4-(pyridin-3-yl)thiazol-2-amine] reads less than 1000 nM; that for `c1cncc(-c2csc(Nc3nc(CN4CCCCC4)cs3)n2)c1` [compound 834, 4-((piperidin-1-yl)methyl)-N-(4-(pyridin-3-yl)thiazol-2-yl)thiazol-2-amine], greater than 10000 nM; that for `CCCCCCCCOc1ccc(Nc2nc(-c3cccnc3)c(C)s2)cc1C(F)(F)F` [compound 836, N-(3-(trifluoromethyl)-4-(octyloxy)phenyl)-5-methyl-4-(pyridin-3-yl)thiazol-2-amine], less than 1000 nM.

With `Cc1sc(Nc2ccc(OCCCC3CCCC3)c(C(F)(F)F)c2)nc1-c1cccnc1` [compound 837, N-(4-(3-cyclopentylpropoxy)-3-(trifluoromethyl)phenyl)-5-methyl-4-(pyridin-3-yl)thiazol-2-amine], the EC50 was less than 1000 nM. The result for `Cc1sc(Nc2ccc(OCCCCc3ccccc3)c(C(F)(F)F)c2)nc1-c1cccnc1` [compound 838, N-(4-(4-phenylbutoxy)-3-(trifluoromethyl)phenyl)-5-methyl-4-(pyridin-3-yl)thiazol-2-amine] reads less than 1000 nM; that for `Cc1sc(Nc2ccc(OCCCc3ccccc3)c(C(F)(F)F)c2)nc1-c1cccnc1` [compound 839, N-(4-(3-phenylpropoxy)-3-(trifluoromethyl)phenyl)-5-methyl-4-(pyridin-3-yl)thiazo1-2-amine], less than 1000 nM; that for `CCCCCCCCOc1ccc(Nc2nc(-c3cnc(O)nc3)cs2)cc1C(F)(F)F` [compound 840, 5-(2-(3-(trifluoromethyl)-4-(octyloxy)phenylamino)thiazol-4-yl)pyrimidin-2-ol], less than 1000 nM.

For the molecule `CCCCCCCCOc1ccc(Nc2nc(-c3ccc(OC)nn3)cs2)cc1C(F)(F)F` [compound 841, N-(3-(trifluoromethyl)-4-(octyloxy)phenyl)-4-(6-methoxypyridazin-3-yl)thiazol-2-amine], the EC50 is less than 1000 nM.
